# Results published in PubChem BioAssay (NCI).
#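 The compound was tested at five concentrations on cells cultured in 96-well plates, with a 48-hour exposure period. TGI marks complete inhibition of growth.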
# Columns and labels:
# Assay in all cases: growth of human tumour cells (NCI), 48 h
# 786-0 renal = test system: 786-0 renal
# A498 renal = test system: A498 renal
# A549 NSCLC = test system: A549 NSCLC
# ACHN renal = test system: ACHN renal
# BT-549 breast = test system: BT-549 breast
# CAKI-1 renal = test system: CAKI-1 renal
# CCRF-CEM leukemia = test system: CCRF-CEM leukemia
# COLO 205 colon = test system: COLO 205 colon
# DU-145 prostate = test system: DU-145 prostate
# EKVX NSCLC = test system: EKVX NSCLC
# HCC-2998 colon = test system: HCC-2998 colon
# HCT-116 colon = test system: HCT-116 colon
# HCT-15 colon = test system: HCT-15 colon
# HL-60(TB) leukemia = test system: HL-60(TB) leukemia
# HS 578T breast = test system: HS 578T breast
# HT29 colon = test system: HT29 colon
# IGROV1 ovarian = test system: IGROV1 ovarian
# K-562 leukemia = test system: K-562 leukemia
# KM12 colon = test system: KM12 colon
# LOX IMVI melanoma = test system: LOX IMVI melanoma
# M14 melanoma = test system: M14 melanoma
# MALME-3M melanoma = test system: MALME-3M melanoma
# MCF7 breast = test system: MCF7 breast
# MDA-MB-231 breast = test system: MDA-MB-231 breast
# MDA-MB-435 = test system: MDA-MB-435
# MDA-N = test system: MDA-N
# MOLT-4 leukemia = test system: MOLT-4 leukemia
# NCI-H226 lung = test system: NCI-H226 lung
# NCI-H23 lung = test system: NCI-H23 lung
# NCI-H460 lung = test system: NCI-H460 lung
# NCI-H522 lung = test system: NCI-H522 lung
# NCI/ADR-RES ovarian = test system: NCI/ADR-RES ovarian
# OVCAR-3 ovarian = test system: OVCAR-3 ovarian
# OVCAR-5 ovarian = test system: OVCAR-5 ovarian
# OVCAR-8 ovarian = test system: OVCAR-8 ovarian
# PC-3 prostate = test system: PC-3 prostate
# RPMI-8226 leukemia = test system: RPMI-8226 leukemia
# RXF 393 renal = test system: RXF 393 renal
# SF-268 CNS = test system: SF-268 CNS
# SF-295 CNS = test system: SF-295 CNS
# SF-539 CNS = test system: SF-539 CNS
# SK-MEL-2 melanoma = test system: SK-MEL-2 melanoma
# SK-MEL-28 melanoma = test system: SK-MEL-28 melanoma
# SK-MEL-5 melanoma = test system: SK-MEL-5 melanoma
# SK-OV-3 ovarian = test system: SK-OV-3 ovarian
# SN12C renal = test system: SN12C renal
# SNB-19 CNS = test system: SNB-19 CNS
# SNB-75 CNS = test system: SNB-75 CNS
# SR leukemia = test system: SR leukemia
# SW-620 colon = test system: SW-620 colon
# TK-10 renal = test system: TK-10 renal
# U251 CNS = test system: U251 CNS
# UACC-257 melanoma = test system: UACC-257 melanoma
# UACC-62 melanoma = test system: UACC-62 melanoma
# UO-31 renal = test system: UO-31 renal
# HOP-62 NSCLC = test system: HOP-62 NSCLC
# HOP-92 NSCLC = test system: HOP-92 NSCLC
# OVCAR-4 ovarian = test system: OVCAR-4 ovarian
structure (smiles),measurement,setting,value
NC1CC2NC3CCCCC3NC2CC1N (configuration not stated),TGI,786-0 renal,> 100 µM
same,TGI,A498 renal,79.4 µM
same,TGI,A549 NSCLC,> 100 µM
same,TGI,ACHN renal,> 100 µM
same,TGI,BT-549 breast,> 100 µM
same,TGI,CAKI-1 renal,> 100 µM
same,TGI,CCRF-CEM leukemia,> 100 µM
same,TGI,COLO 205 colon,> 100 µM
same,TGI,DU-145 prostate,> 100 µM
same,TGI,EKVX NSCLC,> 100 µM
same,TGI,HCC-2998 colon,> 100 µM
same,TGI,HCT-116 colon,> 100 µM
same,TGI,HCT-15 colon,> 100 µM
same,TGI,HL-60(TB) leukemia,94.9 µM
same,TGI,HS 578T breast,> 100 µM
same,TGI,HT29 colon,> 100 µM
same,TGI,IGROV1 ovarian,> 100 µM
same,TGI,K-562 leukemia,> 100 µM
same,TGI,KM12 colon,> 100 µM
same,TGI,LOX IMVI melanoma,> 100 µM
same,TGI,M14 melanoma,> 100 µM
same,TGI,MALME-3M melanoma,> 100 µM
same,TGI,MCF7 breast,> 100 µM
same,TGI,MDA-MB-231 breast,> 100 µM
same,TGI,MDA-MB-435,> 100 µM
same,TGI,MDA-N,> 100 µM
same,TGI,MOLT-4 leukemia,92.9 µM
same,TGI,NCI-H226 lung,> 100 µM
same,TGI,NCI-H23 lung,> 100 µM
same,TGI,NCI-H460 lung,> 100 µM
same,TGI,NCI-H522 lung,39.9 µM
same,TGI,NCI/ADR-RES ovarian,> 100 µM
same,TGI,OVCAR-3 ovarian,> 100 µM
same,TGI,OVCAR-5 ovarian,> 100 µM
same,TGI,OVCAR-8 ovarian,> 100 µM
same,TGI,PC-3 prostate,> 100 µM
same,TGI,RPMI-8226 leukemia,> 100 µM
same,TGI,RXF 393 renal,94.5 µM
same,TGI,SF-268 CNS,> 100 µM
same,TGI,SF-295 CNS,> 100 µM
same,TGI,SF-539 CNS,> 100 µM
same,TGI,SK-MEL-2 melanoma,> 100 µM
same,TGI,SK-MEL-28 melanoma,> 100 µM
same,TGI,SK-MEL-5 melanoma,67.3 µM
same,TGI,SK-OV-3 ovarian,> 100 µM
same,TGI,SN12C renal,> 100 µM
same,TGI,SNB-19 CNS,> 100 µM
same,TGI,SNB-75 CNS,> 100 µM
same,TGI,SR leukemia,> 100 µM
same,TGI,SW-620 colon,> 100 µM
same,TGI,TK-10 renal,> 100 µM
same,TGI,U251 CNS,> 100 µM
same,TGI,UACC-257 melanoma,> 100 µM
same,TGI,UACC-62 melanoma,> 100 µM
same,TGI,UO-31 renal,> 100 µM
CC1OC2(CC(OCc3ccccc3)C1OCc1ccccc1)OCCO2 (configuration not stated),TGI,786-0 renal,> 100 µM
same,TGI,A498 renal,> 100 µM
same,TGI,A549 NSCLC,> 100 µM
same,TGI,ACHN renal,> 100 µM
same,TGI,BT-549 breast,> 100 µM
same,TGI,CAKI-1 renal,> 100 µM
same,TGI,CCRF-CEM leukemia,> 100 µM
same,TGI,COLO 205 colon,> 100 µM
same,TGI,DU-145 prostate,> 100 µM
same,TGI,EKVX NSCLC,> 100 µM
same,TGI,HCC-2998 colon,> 100 µM
same,TGI,HCT-116 colon,> 100 µM
same,TGI,HCT-15 colon,90.5 µM
same,TGI,HL-60(TB) leukemia,48.9 µM
same,TGI,HOP-62 NSCLC,> 100 µM
same,TGI,HOP-92 NSCLC,> 100 µM
same,TGI,HS 578T breast,> 100 µM
same,TGI,HT29 colon,58.2 µM
same,TGI,IGROV1 ovarian,> 100 µM
same,TGI,K-562 leukemia,> 100 µM
same,TGI,KM12 colon,> 100 µM
same,TGI,LOX IMVI melanoma,> 100 µM
same,TGI,M14 melanoma,> 100 µM
same,TGI,MALME-3M melanoma,> 100 µM
same,TGI,MCF7 breast,> 100 µM
same,TGI,MDA-MB-231 breast,> 100 µM
same,TGI,MDA-MB-435,> 100 µM
same,TGI,MDA-N,> 100 µM
same,TGI,MOLT-4 leukemia,75.2 µM
same,TGI,NCI-H226 lung,> 100 µM
same,TGI,NCI-H23 lung,> 100 µM
same,TGI,NCI-H460 lung,> 100 µM
same,TGI,NCI-H522 lung,> 100 µM
same,TGI,NCI/ADR-RES ovarian,> 100 µM
same,TGI,OVCAR-3 ovarian,> 100 µM
same,TGI,OVCAR-4 ovarian,> 100 µM
same,TGI,OVCAR-5 ovarian,> 100 µM
same,TGI,OVCAR-8 ovarian,> 100 µM
same,TGI,PC-3 prostate,> 100 µM
same,TGI,RPMI-8226 leukemia,> 100 µM
same,TGI,RXF 393 renal,74.4 µM
same,TGI,SF-268 CNS,> 100 µM
same,TGI,SF-295 CNS,> 100 µM
same,TGI,SF-539 CNS,> 100 µM
same,TGI,SK-MEL-2 melanoma,> 100 µM
same,TGI,SK-MEL-28 melanoma,> 100 µM
same,TGI,SK-MEL-5 melanoma,> 100 µM
same,TGI,SK-OV-3 ovarian,> 100 µM
same,TGI,SN12C renal,> 100 µM
same,TGI,SNB-19 CNS,> 100 µM
same,TGI,SR leukemia,> 100 µM
same,TGI,SW-620 colon,> 100 µM
same,TGI,TK-10 renal,> 100 µM
same,TGI,U251 CNS,> 100 µM
same,TGI,UACC-257 melanoma,> 100 µM
same,TGI,UACC-62 melanoma,> 100 µM
same,TGI,UO-31 renal,> 100 µM
